Measured values as given in PMC5522460, “Crystal structure of a low molecular weight activator Blm-pep with yeast 20S proteasome – insights into the enzyme activation mechanism” (Scientific Reports, 2017).
Where no end group is shown, it is not given here.

Target: human 20S proteasome (Homo sapiens, UniProt P25786+P28066)
Assay: Proteolytic stability assay with human 20S proteasome
Assay type: in vitro ADME
Details: 10 µM peptide, 0.025 mg/ml h20S, 25 mM Tris-HCl pH 8.0, 3 hours, 37 °C, RP-HPLC and MALDI TOF
Description: Blm-pep was incubated either with human or yeast 20S proteasome. Both assays were conducted in 25 mM Tris-HCl buffer (pH 8.0, measured at 20 °C), which for y20S contained 0.25 mM EDTA as an additive. The peptide and proteasome concentrations in 100 μl final solution were 10 µM and 0.025 mg/ml, respectively. Incubation was carried out for 3 hours at 37 °C. The reaction was stopped by addition of 5 μl of 10% TFA. Results were analyzed using RP-HPLC and MALDI TOF. Prior to MS analysis the samples were desalted using C18 spin columns (Pierce).

proteolytic stability with human 20S proteasome: digested
Sequence: KYFTGSKLWRSYYA [Blm-pep]
